Reference: article doi:10.1101/2023.02.14.528391v1 (biorxiv, 2023)

What follows are compounds tested against hERG potassium channel (Homo sapiens, UniProt Q12809) (assay: in vitro). Settings: not given.
Chain of hERG potassium channel (Q12809 whole entry): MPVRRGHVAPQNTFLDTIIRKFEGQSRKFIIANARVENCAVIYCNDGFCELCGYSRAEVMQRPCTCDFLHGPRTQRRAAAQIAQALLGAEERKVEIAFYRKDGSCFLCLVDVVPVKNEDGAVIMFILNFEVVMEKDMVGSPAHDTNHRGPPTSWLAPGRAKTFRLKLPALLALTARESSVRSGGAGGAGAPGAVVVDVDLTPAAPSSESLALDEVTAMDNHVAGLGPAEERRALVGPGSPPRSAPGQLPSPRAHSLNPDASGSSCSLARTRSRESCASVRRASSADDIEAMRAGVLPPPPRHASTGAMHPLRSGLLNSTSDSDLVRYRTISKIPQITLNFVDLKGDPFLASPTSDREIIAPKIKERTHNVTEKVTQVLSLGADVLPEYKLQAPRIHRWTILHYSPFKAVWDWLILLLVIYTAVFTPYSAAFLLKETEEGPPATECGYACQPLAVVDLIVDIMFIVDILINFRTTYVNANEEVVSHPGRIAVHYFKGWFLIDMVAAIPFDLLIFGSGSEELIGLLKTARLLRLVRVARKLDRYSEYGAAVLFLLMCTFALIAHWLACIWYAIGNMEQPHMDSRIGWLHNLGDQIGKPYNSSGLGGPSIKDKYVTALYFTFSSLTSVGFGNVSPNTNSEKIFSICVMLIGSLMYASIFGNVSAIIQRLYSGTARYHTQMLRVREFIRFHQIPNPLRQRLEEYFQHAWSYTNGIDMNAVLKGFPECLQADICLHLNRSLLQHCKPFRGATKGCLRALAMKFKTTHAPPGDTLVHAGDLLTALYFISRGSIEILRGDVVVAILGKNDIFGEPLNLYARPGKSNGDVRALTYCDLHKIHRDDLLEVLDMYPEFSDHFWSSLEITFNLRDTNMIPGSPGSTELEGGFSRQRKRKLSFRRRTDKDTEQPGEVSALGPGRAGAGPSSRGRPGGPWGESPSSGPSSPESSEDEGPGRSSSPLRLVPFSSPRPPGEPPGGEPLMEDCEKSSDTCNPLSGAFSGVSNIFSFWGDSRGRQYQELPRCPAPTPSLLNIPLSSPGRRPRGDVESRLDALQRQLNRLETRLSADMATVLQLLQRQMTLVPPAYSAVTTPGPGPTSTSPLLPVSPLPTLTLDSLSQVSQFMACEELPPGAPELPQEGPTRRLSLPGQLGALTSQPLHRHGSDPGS

How did the inhibition at 10 µM turn out when `CN(C)CCN(Cc1ccccc1F)C(=O)Cc1c[nH]c2nccc(Cl)c12` [s_22____1322108____13142180] was run?
The inhibition at 10 µM was 38.7%.

Same assay, conditions: % inhibition

With `CN(Cc1sccc1Cl)C[C@H]1CCCCN1C(=O)c1ncccc1F` as the compound, how does the inhibition at 10 µM read?
The inhibition at 10 µM was 27.4%.

Which inhibition at 10 µM does the source give for `CN(CCN(C)C(=O)c1cccnc1N(C)C)Cc1cccc(Cl)c1` here?
Its inhibition at 10 µM is 17.1%.

For `CN(CCCN(C)C(=O)c1ccnc2ccsc12)C(=O)c1cncc(Cl)c1`, which inhibition at 10 µM is on record?
Its inhibition at 10 µM is 2.59%.

For `CN(C)CCc1nc2ccccc2n1Cc1ccccc1Cl` [GMD_7286], which inhibition at 10 µM is on record?
The inhibition at 10 µM was 51.3%.

With `Cc1ccccc1Cn1c(CCN(C)C)nc2ccccc21` [GMD_8492] as the compound, how does the inhibition at 10 µM read?
The inhibition at 10 µM was 9.23%.

How did the inhibition at 10 µM turn out when `CN(C)CCc1nc2ccccc2n1Cc1ccc(F)cc1` [GMD_9161] was run?
The inhibition at 10 µM was 6.04%.

Which inhibition at 10 µM does the source give for `CN(C)CCc1nc2ccccc2n1Cc1ccc(F)c(F)c1` [GMD_9634] here?
The inhibition at 10 µM was 16.1%.

How did the inhibition at 10 µM turn out when `CN(C)CCc1nc2ccccc2n1CCc1ccccc1` [GMD_12737] was run?
Its inhibition at 10 µM is 45.4%.

For `CN(C)CCn1nc(-c2ccccn2)c2ccccc2c1=O` [GMD_13601], which inhibition at 10 µM is on record?
Its inhibition at 10 µM is 16.6%.

Which inhibition at 10 µM does the source give for `CN(C)CCCn1nc(-c2ccccc2Cl)c2ccccc2c1=O` [GMD_16666] here?
The inhibition at 10 µM was 10.6%.

For `CN(C)CCn1nc(-c2ccccc2)c2ccccc2c1=O` [GMD_24043], which inhibition at 10 µM is on record?
Its inhibition at 10 µM is 60.1%.

For `CN(C)CCn1nc(-c2cccnc2)c2ccccc2c1=O` [GMD_36918], which inhibition at 10 µM is on record?
Its inhibition at 10 µM is 2.87%.

Which inhibition at 10 µM does the source give for `CN(C)CCn1nc(-c2ccncc2)c2ccccc2c1=O` [NBI1099472] here?
Its inhibition at 10 µM is 15%.

For `CN(C)CCn1nc(-c2cncc(Cl)c2)c2ccccc2c1=O` [NBI1099473], which inhibition at 10 µM is on record?
The inhibition at 10 µM was 86.1%.

With `CN(C)CCCn1nc(-c2ccncc2)c2ccccc2c1=O` [NBI1099478] as the compound, how does the inhibition at 10 µM read?
The inhibition at 10 µM was 23.4%.

How did the inhibition at 10 µM turn out when `CN(C)CCn1nc(-c2cccs2)c2ccccc2c1=O` [NBI1099533] was run?
Its inhibition at 10 µM is 9.92%.

How did the inhibition at 10 µM turn out when `CSc1ncccc1-c1nn(CCN(C)C)c(=O)c2ccccc12` [NBI1100648] was run?
Its inhibition at 10 µM is 44.2%.

With `Cc1ccc(-c2nn(CN(C)CCC3CCOCC3)c(=O)c3ccccc23)cc1` [m_26____7043632____590162] as the compound, how does the inhibition at 10 µM read?
Its inhibition at 10 µM is 7.12%.

With `CC1CCCCC1N=c1scc(-c2ccnn2C)n1N=Cc1ccc(Cl)cn1` (stereo not shown) [s_1____86334____13026574____11759950] as the compound, how does the inhibition at 10 µM read?
The inhibition at 10 µM was -2.58%.

`CN(C)CCC(Sc1nccn1Cc1ccccn1)c1ccccc1` (stereo not shown) [s_7____4839872____13940010] was tested. Which inhibition at 10 µM did it give?
The inhibition at 10 µM was 5.79%.

For `CN(C)CCCSc1nnc(-c2cnccn2)n1-c1ccc(Cl)cc1` [s_7____7285292____9475634], which inhibition at 10 µM is on record?
Its inhibition at 10 µM is 32.1%.

For `CN(C)CCC(Sc1ccncc1F)c1ccccc1` (stereo not shown) [s_7____14325654____13940010], which inhibition at 10 µM is on record?
The inhibition at 10 µM was 47.3%.

`CN(C)CCN(Cc1ccccc1)C(=O)c1ncccc1Cl` [s_11____117338____10437082] was tested. Which inhibition at 10 µM did it give?
The inhibition at 10 µM was 9.12%.

With `CN(C)CCN(CCc1ccccc1)C(=O)c1csc2cc(Cl)cnc12` [s_11____764634____11618976] as the compound, how does the inhibition at 10 µM read?
Its inhibition at 10 µM is 88.2%.

With `CC(=Cc1ccccn1)C(=O)N(CCN(C)C)c1ccccc1` [s_11____2264406____11762612] as the compound, how does the inhibition at 10 µM read?
The inhibition at 10 µM was 18.8%.

For `CN(C)CCN(C(=O)c1cccc2ncccc12)c1ccccc1` [s_11____2264406____15260550], which inhibition at 10 µM is on record?
The inhibition at 10 µM was 21.8%.

With `COc1cc(C(=O)N(CCN(C)C)c2ccccc2)c2ncccc2c1` [s_11____2264406____15769708] as the compound, how does the inhibition at 10 µM read?
Its inhibition at 10 µM is 22.5%.

How did the inhibition at 10 µM turn out when `CN(C)CCN(Cc1ccccc1F)C(=O)c1cccc2cccnc12` [s_11____4836284____101939] was run?
The inhibition at 10 µM was 55%.

Which inhibition at 10 µM does the source give for `CN(C)CCN(Cc1ccc(F)cc1F)C(=O)c1cc(Br)ncc1Cl` [s_11____4836304____10207328] here?
The inhibition at 10 µM was 28.7%.

With `CN(C)CCN(Cc1ccsc1)C(=O)c1cc2c(Cl)cncc2s1` [s_11____10910498____13033826] as the compound, how does the inhibition at 10 µM read?
The inhibition at 10 µM was 79.5%.

Which inhibition at 10 µM does the source give for `CC(=Cc1ccccc1Cl)C(=O)N(CCN(C)C)c1ccccn1` [s_11____17828754____7832710] here?
Its inhibition at 10 µM is 48.4%.

`Cc1ccc2c(C(=O)N(CCN(C)C)c3ccccn3)ccnc2c1Cl` [s_11____17828754____14179334] was tested. Which inhibition at 10 µM did it give?
Its inhibition at 10 µM is 29.9%.

With `Cc1cccc2c(C(=O)N(CCN(C)C)c3ccccn3)cnn12` [s_11____17828754____16474570] as the compound, how does the inhibition at 10 µM read?
The inhibition at 10 µM was 20.8%.

Which inhibition at 10 µM does the source give for `CN(C)CCCN(Cc1ccc(Cl)c(Cl)c1)C(=O)c1nccnc1Cl` [s_22____1500308____12360522] here?
Its inhibition at 10 µM is 57.7%.

Which inhibition at 10 µM does the source give for `CN(C)CCN(CCCc1ccccc1)C(=O)c1cn(C)c2ccccc12` [s_22____2161756____115777] here?
The inhibition at 10 µM was 63.8%.

Which inhibition at 10 µM does the source give for `CN(C)CCN(Cc1ccc(F)c(F)c1)C(=O)c1ccnc(Cl)c1Cl` [s_22____2224104____12421166] here?
The inhibition at 10 µM was 23.5%.

With `CN(C)CCN(Cc1cccc(F)c1)C(=O)CSc1nc2ccccc2n1C` [s_22____2224108____339636] as the compound, how does the inhibition at 10 µM read?
Its inhibition at 10 µM is 75.6%.

`Cc1cccc(CN(CCN(C)C)C(=O)C2=Cc3ccc(Cl)cc3OC2)c1` [s_22____3218898____13770932] was tested. Which inhibition at 10 µM did it give?
The inhibition at 10 µM was 94.3%.

For `COCCN(CCN(C)C)C(=O)c1cccnc1Oc1ccc(Cl)cc1Cl` [s_22____3489604____2009120], which inhibition at 10 µM is on record?
The inhibition at 10 µM was 48.6%.

How did the inhibition at 10 µM turn out when `COc1c(Cl)cc(C(=O)N(CCN(C)C)C2CCCCC2)c2ncccc12` [s_22____4639446____15428718] was run?
The inhibition at 10 µM was 42.7%.

For `CN(C)CCN(Cc1nccn1C)C(=O)c1ccn(-c2ccccc2Cl)n1` [s_22____16636986____2366818], which inhibition at 10 µM is on record?
Its inhibition at 10 µM is 25.8%.

Which inhibition at 10 µM does the source give for `CN(C)CCN(Cc1ccccc1F)c1ncc(Cl)cc1Cl` [s_27____7100864____12221638] here?
The inhibition at 10 µM was 86.4%.

For `CN(C)CCCN(Cc1ccc(Cl)c(Cl)c1)c1cnc2ccccc2n1` [s_27____7425384____262944], which inhibition at 10 µM is on record?
The inhibition at 10 µM was 93.6%.

With `Cc1csc2ccnc(N3CCOCC4(COCCN4Cc4ccccc4)C3)c12` (stereo not shown) [s_27____15756872____16607386] as the compound, how does the inhibition at 10 µM read?
Its inhibition at 10 µM is 62.1%.

How did the inhibition at 10 µM turn out when `CN(C)CCN(Cc1nccn1C)c1cc(C(F)F)nc2ccc(Cl)cc12` [s_27____16636988____10213920] was run?
The inhibition at 10 µM was 61%.

`Cc1cc2nc(Cl)nc(N(CCN(C)C)Cc3nccn3C)c2s1` [s_27____16636988____12112620] was tested. Which inhibition at 10 µM did it give?
Its inhibition at 10 µM is 71.2%.

`CN(C)CCN(Cc1nccn1C)c1nc(-c2ccccn2)nc2sccc12` [s_27____16636988____12321872] was tested. Which inhibition at 10 µM did it give?
The inhibition at 10 µM was 91.6%.

Which inhibition at 10 µM does the source give for `CN(C)CCN(Cc1nccn1C)c1nc2cc(Cl)ccc2s1` [s_27____16636988____14057938] here?
Its inhibition at 10 µM is 89.1%.

For `CN(C)CCN(Cc1ccccc1)C(=O)c1cc(-c2ccccn2)ccc1Cl` [s_527____284286____7794996], which inhibition at 10 µM is on record?
Its inhibition at 10 µM is 55%.

How did the inhibition at 10 µM turn out when `Cc1ccc(C(=O)N(CCN(C)C)Cc2ccccc2)c2ncccc12` [s_527____284286____13308974] was run?
The inhibition at 10 µM was 69.2%.

For `CN(C)CCCN(Cc1ccc(Cl)c(Cl)c1)C(=O)c1nccc2ncccc12` [s_527____1500312____14775532], which inhibition at 10 µM is on record?
The inhibition at 10 µM was 40%.

Which inhibition at 10 µM does the source give for `CN(C)CCCN(Cc1ccc(Cl)c(Cl)c1)C(=O)c1ccn2c1CSCC2` [s_527____1500312____16910956] here?
Its inhibition at 10 µM is 66.8%.

For `CN(C)CCN(Cc1ccccc1F)C(=O)c1cccc2ncccc12` [s_527____7348186____237975], which inhibition at 10 µM is on record?
Its inhibition at 10 µM is 1.57%.

With `Cc1ccc2cc(C(=O)N(CCN(C)C)Cc3ccccc3F)ccc2n1` [s_527____7348186____7593650] as the compound, how does the inhibition at 10 µM read?
Its inhibition at 10 µM is 21.8%.

Which inhibition at 10 µM does the source give for `Cc1cccc2c(C(=O)N(CCN(C)C)Cc3ccccc3F)nccc12` [s_527____7348186____14188826] here?
The inhibition at 10 µM was 52.7%.

Which inhibition at 10 µM does the source give for `CN(C)CCN(Cc1ccccc1F)C(=O)c1nccc2ncccc12` [s_527____7348186____14775532] here?
Its inhibition at 10 µM is 33.1%.

Which inhibition at 10 µM does the source give for `CN(C)CCN(Cc1ccccc1F)C(=O)c1c(Cl)ccc2cccnc12` [s_527____7348186____16891240] here?
The inhibition at 10 µM was 59.1%.
